In the test the target is Ralstonia pickettii 12D FAD dependent oxidoreductase (SEQ ID NO:9), variant QYY, S327Q/S366Y/A473Y (Ralstonia pickettii, UniProt A0ABM9ITV6, A473Y/S327Q/S366Y). The test is classed as biochemical. To be noted: read-out: Km (Mal).

Where only a bound is given, the exact number is not on record here.

One may read the Km as the concentration of substrate that gives half-maximal velocity. With `OC[C@H]1O[C@H](O[C@H]2[C@H](O)[C@@H](O)C(O)O[C@@H]2CO)[C@H](O)[C@@H](O)[C@@H]1O` (stereo partly shown) [Mal, maltose], the Km is over 100 mM.
